From PubChem BioAssay (NCI)
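Cells were grown in 96-well plates and exposed to each compound for 48 hours at five concentrations; endpoints were interpolated linearly between bracketing concentrations, or set to the highest concentration if not reached. TGI: concentration producing complete growth inhibition.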

Tests used:
Test in all cases: NCI tumour cell line growth inhibition, 48 h
786-0 renal = tested on: 786-0 renal
A498 renal = tested on: A498 renal
A549 NSCLC = tested on: A549 NSCLC
ACHN renal = tested on: ACHN renal
BT-549 breast = tested on: BT-549 breast
CAKI-1 renal = tested on: CAKI-1 renal
CCRF-CEM leukemia = tested on: CCRF-CEM leukemia
COLO 205 colon = tested on: COLO 205 colon
DU-145 prostate = tested on: DU-145 prostate
EKVX NSCLC = tested on: EKVX NSCLC
HCT-116 colon = tested on: HCT-116 colon
HCT-15 colon = tested on: HCT-15 colon
HL-60(TB) leukemia = tested on: HL-60(TB) leukemia
HOP-62 NSCLC = tested on: HOP-62 NSCLC
HOP-92 NSCLC = tested on: HOP-92 NSCLC
HS 578T breast = tested on: HS 578T breast
HT29 colon = tested on: HT29 colon
IGROV1 ovarian = tested on: IGROV1 ovarian
K-562 leukemia = tested on: K-562 leukemia
KM12 colon = tested on: KM12 colon
LOX IMVI melanoma = tested on: LOX IMVI melanoma
M14 melanoma = tested on: M14 melanoma
MALME-3M melanoma = tested on: MALME-3M melanoma
MCF7 breast = tested on: MCF7 breast
MDA-MB-231 breast = tested on: MDA-MB-231 breast
MDA-MB-435 = tested on: MDA-MB-435
MDA-N = tested on: MDA-N
MOLT-4 leukemia = tested on: MOLT-4 leukemia
NCI-H226 lung = tested on: NCI-H226 lung
NCI-H23 lung = tested on: NCI-H23 lung
NCI-H460 lung = tested on: NCI-H460 lung
NCI-H522 lung = tested on: NCI-H522 lung
NCI/ADR-RES ovarian = tested on: NCI/ADR-RES ovarian
OVCAR-3 ovarian = tested on: OVCAR-3 ovarian
OVCAR-4 ovarian = tested on: OVCAR-4 ovarian
OVCAR-5 ovarian = tested on: OVCAR-5 ovarian
OVCAR-8 ovarian = tested on: OVCAR-8 ovarian
PC-3 prostate = tested on: PC-3 prostate
RXF 393 renal = tested on: RXF 393 renal
SF-268 CNS = tested on: SF-268 CNS
SF-295 CNS = tested on: SF-295 CNS
SF-539 CNS = tested on: SF-539 CNS
SK-MEL-2 melanoma = tested on: SK-MEL-2 melanoma
SK-MEL-28 melanoma = tested on: SK-MEL-28 melanoma
SK-MEL-5 melanoma = tested on: SK-MEL-5 melanoma
SK-OV-3 ovarian = tested on: SK-OV-3 ovarian
SN12C renal = tested on: SN12C renal
SNB-19 CNS = tested on: SNB-19 CNS
SNB-75 CNS = tested on: SNB-75 CNS
SR leukemia = tested on: SR leukemia
SW-620 colon = tested on: SW-620 colon
T-47D breast = tested on: T-47D breast
TK-10 renal = tested on: TK-10 renal
U251 CNS = tested on: U251 CNS
UACC-257 melanoma = tested on: UACC-257 melanoma
UACC-62 melanoma = tested on: UACC-62 melanoma
UO-31 renal = tested on: UO-31 renal
HCC-2998 colon = tested on: HCC-2998 colon
RPMI-8226 leukemia = tested on: RPMI-8226 leukemia

Measured: TGI

COc1ccc(N2C(=O)C3ON(C(C(N)=O)c4ccccc4)C(c4cc5ccccc5c5ccccc45)C3C2=O)cc1 (stereo not drawn)
18.5 µM: CAKI-1 renal
35.6 µM: MDA-N
> 50 µM: 786-0 renal | A498 renal | A549 NSCLC | ACHN renal | BT-549 breast | CCRF-CEM leukemia | COLO 205 colon | DU-145 prostate | EKVX NSCLC | HCT-116 colon | HCT-15 colon | HL-60(TB) leukemia | HOP-62 NSCLC | HOP-92 NSCLC | HS 578T breast | HT29 colon | IGROV1 ovarian | K-562 leukemia | KM12 colon | LOX IMVI melanoma | M14 melanoma | MALME-3M melanoma | MCF7 breast | MDA-MB-231 breast | MDA-MB-435 | NCI-H226 lung | NCI-H23 lung | NCI-H460 lung | NCI-H522 lung | NCI/ADR-RES ovarian | OVCAR-3 ovarian | OVCAR-4 ovarian | OVCAR-5 ovarian | OVCAR-8 ovarian | PC-3 prostate | RXF 393 renal | SF-268 CNS | SF-295 CNS | SF-539 CNS | SK-MEL-2 melanoma | SK-MEL-28 melanoma | SK-MEL-5 melanoma | SK-OV-3 ovarian | SN12C renal | SNB-19 CNS | SNB-75 CNS | SR leukemia | SW-620 colon | T-47D breast | TK-10 renal | U251 CNS | UACC-257 melanoma | UACC-62 melanoma
46.9 µM: MOLT-4 leukemia
34.5 µM: UO-31 renal

O=C1CCCC2(c3ccccc3)Nc3ccccc3N12 (stereo not drawn)
> 100 µM: 786-0 renal | A549 NSCLC | ACHN renal | BT-549 breast | CAKI-1 renal | CCRF-CEM leukemia | COLO 205 colon | DU-145 prostate | EKVX NSCLC | HCC-2998 colon | HCT-116 colon | HCT-15 colon | HL-60(TB) leukemia | HOP-62 NSCLC | HOP-92 NSCLC | HS 578T breast | HT29 colon | IGROV1 ovarian | K-562 leukemia | KM12 colon | LOX IMVI melanoma | M14 melanoma | MALME-3M melanoma | MCF7 breast | MDA-MB-231 breast | MDA-MB-435 | MDA-N | MOLT-4 leukemia | NCI-H226 lung | NCI-H23 lung | NCI-H460 lung | NCI-H522 lung | NCI/ADR-RES ovarian | OVCAR-3 ovarian | OVCAR-4 ovarian | OVCAR-5 ovarian | OVCAR-8 ovarian | PC-3 prostate | RPMI-8226 leukemia | RXF 393 renal | SF-268 CNS | SF-295 CNS | SF-539 CNS | SK-MEL-2 melanoma | SK-MEL-28 melanoma | SK-MEL-5 melanoma | SK-OV-3 ovarian | SN12C renal | SNB-19 CNS | SNB-75 CNS | SR leukemia | SW-620 colon | T-47D breast | TK-10 renal | U251 CNS | UACC-257 melanoma | UACC-62 melanoma | UO-31 renal

CC(C)(C)c1ccc(-c2nc3ccc(Cl)cc3c(=O)o2)cc1
40.5 µM: HCT-116 colon
57.2 µM: SK-MEL-28 melanoma
29.7 µM: NCI-H522 lung
87.1 µM: RXF 393 renal
61.7 µM: ACHN renal | MCF7 breast
31 µM: LOX IMVI melanoma
31.3 µM: U251 CNS
67.8 µM: K-562 leukemia
35.8 µM: SF-539 CNS
44.2 µM: SK-MEL-2 melanoma
70 µM: EKVX NSCLC
47.9 µM: SR leukemia
63.8 µM: HT29 colon
27.6 µM: HCC-2998 colon
67.1 µM: NCI/ADR-RES ovarian
92.4 µM: DU-145 prostate
53 µM: A549 NSCLC
56.5 µM: MDA-MB-435 | UACC-62 melanoma
18.6 µM: MDA-MB-231 breast
80.9 µM: OVCAR-5 ovarian
63.9 µM: CAKI-1 renal
19.2 µM: KM12 colon
34.2 µM: CCRF-CEM leukemia
49.3 µM: OVCAR-8 ovarian
81.6 µM: SNB-75 CNS
34.6 µM: OVCAR-3 ovarian
46.8 µM: HOP-92 NSCLC
39.9 µM: COLO 205 colon
49.7 µM: HOP-62 NSCLC
49.2 µM: M14 melanoma
77.3 µM: SF-268 CNS
63.1 µM: OVCAR-4 ovarian
42.4 µM: HL-60(TB) leukemia
36.3 µM: MOLT-4 leukemia
80.1 µM: SNB-19 CNS
49.5 µM: HCT-15 colon
26.2 µM: SK-MEL-5 melanoma
65.1 µM: UACC-257 melanoma
92.1 µM: PC-3 prostate
87.2 µM: IGROV1 ovarian
35 µM: NCI-H23 lung
63.6 µM: BT-549 breast
54.1 µM: RPMI-8226 leukemia
68.7 µM: SK-OV-3 ovarian
79.4 µM: A498 renal
58.1 µM: SF-295 CNS
77.6 µM: UO-31 renal
64 µM: MDA-N
> 100 µM: 786-0 renal | HS 578T breast | NCI-H460 lung | SN12C renal | SW-620 colon | T-47D breast | TK-10 renal
50.9 µM: MALME-3M melanoma

c1ccc2c(c1)nc1n2CNC1
> 100 µM: 786-0 renal | A498 renal | A549 NSCLC | ACHN renal | BT-549 breast | CAKI-1 renal | CCRF-CEM leukemia | COLO 205 colon | DU-145 prostate | EKVX NSCLC | HCC-2998 colon | HCT-116 colon | HCT-15 colon | HL-60(TB) leukemia | HOP-62 NSCLC | HOP-92 NSCLC | HS 578T breast | HT29 colon | IGROV1 ovarian | K-562 leukemia | KM12 colon | LOX IMVI melanoma | M14 melanoma | MCF7 breast | MDA-MB-231 breast | MDA-MB-435 | MDA-N | MOLT-4 leukemia | NCI-H23 lung | NCI-H460 lung | NCI/ADR-RES ovarian | OVCAR-3 ovarian | OVCAR-4 ovarian | OVCAR-5 ovarian | PC-3 prostate | RPMI-8226 leukemia | RXF 393 renal | SF-268 CNS | SF-295 CNS | SF-539 CNS | SK-MEL-2 melanoma | SK-MEL-28 melanoma | SK-MEL-5 melanoma | SK-OV-3 ovarian | SN12C renal | SNB-19 CNS | SNB-75 CNS | SR leukemia | SW-620 colon | T-47D breast | TK-10 renal | U251 CNS | UACC-257 melanoma | UACC-62 melanoma | UO-31 renal
